Laboratory results published in patent publication US11679107B2 (Eisai R&D Management Co., Ltd., priority 2018, dated 2023).
Like-named read-outs stand apart in the source and are kept apart here.

Key:
SF3b complexes = molecular target: T1, SF3b complexes (Homo sapiens, UniProt O75533+Q7RTV0); test: Scintillation proximity assay (SPA) with [3H]-labelled pladienolide probe; type: binding; details: SF3B1 (WT); geometric mean; read-out: SPA-ATS GMean IC50 (nM) SF3B1 (WT)
T1 construct: endogenous in cells; host or cells: Nuclear extracts; A HeLa S3 extract preparation is described for the in vitro splicing assay
Outline: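 SF3b complexes captured from nuclear extracts on anti-SF3B1 antibody SPA beads; test compounds pre-incubated 30 min before 2.5 nM [3H]-pladienolide probe added, then 30 min incubation. Bound probe read by scintillation; values from non-linear regression of concentration–response curves.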

[1] = test system: Ad2 variant pre-mRNAs spliced in HeLa S3 nuclear extracts; test: In vitro splicing assay (IVS), RT-qPCR of spliced product; type: biochemical; details: for IC50: geometric mean; for Ratio Ad2.1/2.2: ratio of IVS IC50 Ad2.1 to Ad2.2
Outline: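 Ad2 variant pre-mRNA (2 ng) with FTZΔi control RNA in HeLa S3 nuclear extract (8 μg) was pre-incubated with compound or DMSO for 15 min at 30 °C. Splicing ran 90 min at 30 °C after adding 0.5 mM ATP, creatine phosphate and MgCl2. Spliced product was quantified by TaqMan RT-qPCR, normalized to DMSO, and curve-fitted.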

[2] = test system: NCI-H1568 cells (high MCL1); test: Cell proliferation and viability, CellTiter-Glo, 72 hours; type: cell-based; details: for GI50: geometric mean
Outline: (§1)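 Cells grown in RPMI-1640 with 10% FBS (Panc line with added insulin and FBS to 15%) were exposed to an 11-point half-log dilution series, typically 10 μM-100 pM, at 0.1% final DMSO. After incubation at 37° C, 5% CO2, ATP content was measured by luminescence and normalized to a time-zero plate and DMSO wells.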

[3] = test system: Panc 05.04 cells (SF3b K700E mutant); test: as above; type: cell-based; details: for GI50: geometric mean
Outline: as §1

[4] = Ad2.1 pre-mRNA substrate, read-out: qPCR-IVS-ATS GMean IC50 (nM) Ad2.1
[5] = Ad2.2 pre-mRNA substrate, read-out: qPCR-IVS-ATS GMean IC50 (nM) Ad2.2
[6] = 72 h, NCIH1568.1, -100% = cidal, 0% = static, 100% = uninhibited growth
[7] = 72 h, PANC0504.1, -100% = cidal, 0% = static, 100% = uninhibited growth
[8] = NCI-H1568, 72 h, read-out: CTGlo-ATS GMean GI50 (nM) 72 h NCIH1568.1, NCIH1568.1 cells, 72 h
[9] = NCIH1568.1 cells, 72 h, −100% cidal, 0% static, 100% maximal growth
[10] = PANC0504.1 cells, 72 h, −100% cidal, 0% static, 100% maximal growth
[11] = Panc 05.04, 72 h, read-out: CTGlo-ATS GMean GI50 (nM) 72 h PANC0504.1, PANC0504.1 cells, 72 h
[12] = NCI-H1568, read-out: CTGlo-ATS GMean GI50 (nM) 72 h NCIH1568.1, NCIH1568.1 cells, 72 h
[13] = Panc 05.04, read-out: CTGlo-ATS GMean GI50 (nM) 72 h PANC0504.1, PANC0504.1 cells, 72 h
[14] = NCI-H1568, read-out: CTGlo-ATS GMean GI50 (nM) 72 h NCIH1568.1, 72 h, NCIH1568.1
[15] = Panc 05.04, read-out: CTGlo-ATS GMean GI50 (nM) 72 h PANC0504.1, 72 h, PANC0504.1

Row | SMILES | IC50 (SF3b complexes) [nM] | IC50 [1, 4] [nM] | IC50 [1, 5] [nM] | Ratio Ad2.1/2.2 [1] | CTGlo-ATS Mean MinResponse % 72 h NCIH1568.1 [2, 6] [%] | GI50 ([2]; NCI-H1568, 72 h, read-out: CTGlo-ATS GMean GI50 (nM) 72 h NCIH1568.1, 72 h, NCIH1568.1) [nM] | CTGlo-ATS Mean MinResponse % 72 h PANC0504.1 [3, 7] [%] | GI50 ([3]; Panc 05.04, 72 h, read-out: CTGlo-ATS GMean GI50 (nM) 72 h PANC0504.1, 72 h, PANC0504.1) [nM] | GI50 [2, 8] [nM] | CTGlo-ATS Mean MinResponse % 72 h NCIH1568.1 [2, 9] [%] | CTGlo-ATS Mean MinResponse % 72 h PANC0504.1 [3, 10] [%] | GI50 [3, 11] [nM] | GI50 [2, 12] [nM] | GI50 [3, 13] [nM] | GI50 [2, 14] [nM] | GI50 [3, 15] [nM]
1 | [2H]C([2H])([2H])N1CCN(C(=O)O[C@H]2/C=C/C(C)C(/C(C)=C/c3cc(F)cc(N4CCOCC4)c3)OC(=O)CC(O)CC[C@@H]2C)CC1 (stereo in doubt) [Compound 220, [(2R,3R,4E,6R,7S,10S)-2-[(E)-1-(3-fluoro-5-morpholin-4-ylphenyl)prop-1-en-2-yl]-10-hydroxy-3,7-dimethyl-12-oxo-1-oxacyclododec-4-en-6-yl] 4-(trideuteriomethyl)piperazine-1-carboxylate] | 3.17 | 19.3 | 14.4 | 1.344 | −76.936 | 2.01 | −90.506 | 4.36 | – | – | – | – | – | – | – | –
2 | C/C(=C\c1cc(F)cc(N2CCN(C(=O)C3CCOCC3)CC2)c1)[C@H]1OC(=O)C[C@H](O)CC[C@H](C)[C@@H](OC(=O)N2CCN(C)CC2)/C=C/[C@@H]1C [Compound 118] | 3.76 | 22 | 19.9 | – | – | – | – | – | 3 | −82.113 | −79.169 | 4.55 | – | – | – | –
3 | COc1ccc(S(=O)(=O)N2CCN(c3cc(F)cc(/C=C(\C)[C@H]4OC(=O)C[C@H](O)CC[C@H](C)[C@@H](OC(=O)N5CCN(C)CC5)/C=C/[C@@H]4C)c3)CC2)cc1 [Compound 110] | 42.1 | 142 | 63.2 | – | – | – | – | – | – | −93.755 | −74.667 | – | 40.9 | 41.8 | – | –
4 | C/C(=C\c1cccc(COC(=O)N2CC[C@@H](F)C2)c1)[C@H]1OC(=O)C[C@H](O)CC[C@H](C)[C@@H](OC(=O)N2CCN(C)CC2)/C=C/[C@@H]1C [Compound 260] | 0.196 | > 25000 | 99.4 | 251.398 | −44.621 | – | −47.734 | – | – | – | – | – | – | – | 42.3 | 39.5
5 | C/C(=C\c1cc(F)cc(N2CCOC[C@H]2C)c1)[C@H]1OC(=O)C[C@H](O)CC[C@H](C)[C@@H](OC(=O)N2CCN(C)CC2)/C=C/[C@@H]1C [Compound 75] | 2.15 | 19 | 15.4 | – | – | – | – | – | – | −85.064 | −81.995 | – | 3.58 | 3.69 | – | –
6 | C/C(=C\c1cc(F)cc(N2CCOCC2)c1)[C@H]1OC(=O)C[C@H](O)CC[C@H](C)[C@@H](OC(=O)N2CC[C@H](N(C)C)C2)/C=C/[C@@H]1C [Compound 244, [(2S,3S,4E,6R,7S,10R)-2-[(E)-1-(3-fluoro-5-morpholin-4-ylphenyl)prop-1-en-2-yl]-10-hydroxy-3,7-dimethyl-12-oxo-1-oxacyclododec-4-en-6-yl] (3S)-3-(dimethylamino)pyrrolidine-1-carboxylate] | 3.38 | 3580 | 38.5 | 93.018 | −65.165 | – | −95.630 | – | – | – | – | – | – | – | 20.2 | 27.6
7 | C/C(=C\c1cccc(S(=O)(=O)N2CCCCC2)c1)[C@H]1OC(=O)C[C@H](O)CC[C@H](C)[C@@H](OC(=O)N2CCN(C)CC2)/C=C/[C@@H]1C [Compound 213, [(2S,3S,4E,6R,7S,10R)-10-hydroxy-3,7-dimethyl-12-oxo-2-[(E)-1-(3-piperidin-1-ylsulfonylphenyl)prop-1-en-2-yl]-1-oxacyclododec-4-en-6-yl] 4-methylpiperazine-1-carboxylate] | 3.23 | 9.84 | 7.96 | 1.236 | −64.116 | – | −85.603 | – | – | – | – | – | – | – | 6.03 | 3.2
8 | C/C(=C\c1cc(F)cc(N2CCN(CC3CC3)C2=O)c1)[C@H]1OC(=O)C[C@H](O)CC[C@H](C)[C@@H](OC(=O)N2CCN(C)CC2)/C=C/[C@@H]1C [Compound 68] | 3.39 | 1870 | 35.7 | – | – | – | – | – | – | −67.270 | −93.925 | – | 12.4 | 11.7 | – | –
9 | C/C(=C\c1cccc(S(=O)(=O)N2CCN(C=O)CC2)c1)[C@H]1OC(=O)C[C@H](O)CC[C@H](C)[C@@H](OC(=O)N2CCN(C)CC2)/C=C/[C@@H]1C [Compound 94] | 7.48 | 5570 | 37.5 | – | – | – | – | – | – | −40.948 | −94.671 | – | 35.5 | 30.4 | – | –
10 | C/C(=C\c1cc(F)c2nnn(CC3CC3)c2c1)[C@H]1OC(=O)C[C@H](O)CC[C@H](C)[C@@H](OC(=O)N2CCN(C)CC2)/C=C/[C@@H]1C [Compound 137] | 1.21 | 27.6 | 12.1 | – | – | – | – | – | – | −81.149 | −86.584 | – | 1.17 | 1.61 | – | –
11 | C/C(=C\c1cc(F)cc(N2CCN(CCO)C2=O)c1)[C@H]1OC(=O)C[C@H](O)CC[C@H](C)[C@@H](OC(=O)N2CCN(C)CC2)/C=C/[C@@H]1C [Compound 65] | 2.83 | 26.2 | 17.3 | – | – | – | – | – | 5.88 | −68.297 | −88.951 | 5.74 | – | – | – | –
12 | C/C(=C\c1ccc2c(F)nn(CC3CC3)c2c1)[C@H]1OC(=O)C[C@H](O)CC[C@H](C)[C@@H](OC(=O)N2CCN(C)CC2)/C=C/[C@@H]1C [Compound 133] | 6.99 | 1670 | 92.5 | – | – | – | – | – | – | −69.167 | −94.957 | – | 17.7 | 25.6 | – | –
13 | C/C(=C\c1cc(F)cc(N2CCOCC2)c1)[C@H]1OC(=O)C[C@H](O)CC[C@H](C)[C@@H](OC(=O)N2CCN3CCCC3C2)/C=C/[C@@H]1C (some centres unmarked) [Compound 82] | 3.79 | 68.6 | 28.2 | – | – | – | – | – | – | −60.656 | −88.044 | – | 12.2 | 8.74 | – | –
14 | C/C(=C\c1cc(F)cc(N2CCC[C@@H]2CO)c1)[C@H]1OC(=O)C[C@H](O)CC[C@H](C)[C@@H](OC(=O)N2CCN(C)CC2)/C=C/[C@@H]1C [Compound 44] | 8.26 | 12800 | 86.6 | – | – | – | – | – | 67.2 | −14.871 | −92.314 | 41.5 | – | – | – | –
15 | C/C(=C\c1cccc(S(=O)(=O)N2CCCC2C)c1)[C@H]1OC(=O)CC(O)CCC(C)[C@@H](OC(=O)N2CCN(C)CC2)/C=C/[C@@H]1C (stereo in doubt) [Compound 200, [(2S,3S,4E,6R,7R,10S)-10-hydroxy-3,7-dimethyl-2-[(E)-1-[3-[(2S)-2-methylpyrrolidin-1-yl]sulfonylphenyl]prop-1-en-2-yl]-12-oxo-1-oxacyclododec-4-en-6-yl] 4-methylpiperazine-1-carboxylate] | 8.03 | 8050 | 27 | 297.600 | −51.281 | – | −94.085 | – | – | – | – | – | – | – | 24.2 | 17.4
